Source: the NIST ThermoML archive (doi:10.1016/j.fluid.2014.11.020)
Numbers after ± are expanded uncertainties.

Experiment: activity coefficient (dimensionless); of the first substance listed, at infinite dilution; xn = mol fraction of the nth substance listed
Conditions: Liquid, Chromatography, x1 = 0

SMILES	activity coefficient (323.15 K)	activity coefficient (333.15 K)	activity coefficient (343.15 K)
CO [methanol] + CCCOC[n+]1ccn(C)c1.F[B-](F)(F)F	1.29 ± 0.08	1.2 ± 0.08	1.11 ± 0.07
ClC(Cl)Cl [trichloromethane] + CCCCCCCCn1cc[n+](COCCCOC[n+]2ccn(CCCCCCCC)c2C)c1C.N#C[N-]C#N.N#C[N-]C#N	0.24 ± 0.03	0.26 ± 0.03	0.27 ± 0.03
CCO [ethanol] + N#C[N-]C#N.N#C[N-]C#N.c1ccc(Cn2cc[n+](COCCCOC[n+]3ccn(Cc4ccccc4)c3)c2)cc1	0.94 ± 0.06	0.89 ± 0.06	0.86 ± 0.06
C=CCCCC [hex-1-ene] + CCCCCCCCn1cc[n+](COCCC)c1C.N#C[N-]C#N	4.34 ± 0.3	4.37 ± 0.3	3.94 ± 0.27
CC1CCCC1 [methylcyclopentane] + CN(C)c1cc[n+](COCCCOC[n+]2ccc(N(C)C)cc2)cc1.O=S(=O)([N-]S(=O)(=O)C(F)(F)F)C(F)(F)F.O=S(=O)([N-]S(=O)(=O)C(F)(F)F)C(F)(F)F	11 ± 0.75	9.51 ± 0.65	9 ± 0.61
CC(C)CO [2-methyl-1-propanol] + Cn1cc[n+](COCCCOC[n+]2ccn(C)c2)c1.N#C[N-]C#N.N#C[N-]C#N	1.94 ± 0.13	1.81 ± 0.12	1.73 ± 0.12
CCCO [propan-1-ol] + CCCCCCCCn1cc[n+](COCCCOC[n+]2ccn(CCCCCCCC)c2C)c1C.N#C[N-]C#N.N#C[N-]C#N	0.32 ± 0.03	0.32 ± 0.03	0.31 ± 0.03
CCc1ccccc1 [ethylbenzene] + CCCOC[n+]1ccn(Cc2ccccc2)c1.N#C[N-]C#N	3.41 ± 0.23	3.36 ± 0.23	3.32 ± 0.23
CCC(=O)CC [pentan-3-one] + Cn1cc[n+](COCCCOC[n+]2ccn(C)c2)c1.N#C[N-]C#N.N#C[N-]C#N	3.39 ± 0.23	3.49 ± 0.24	3.46 ± 0.24
CCc1ccccc1 [ethylbenzene] + CCCOC[n+]1ccn(C)c1.F[B-](F)(F)F	11 ± 0.75	10.8 ± 0.74	10.7 ± 0.73
CCCCO [butan-1-ol] + CCCOC[n+]1ccn(C)c1.F[B-](F)(F)F	4.61 ± 0.31	4.17 ± 0.28	3.76 ± 0.26
C1COCCO1 [1,4-dioxane] + CCCOC[n+]1ccn(C)c1.F[B-](F)(F)F	1.39 ± 0.09	1.42 ± 0.09	1.46 ± 0.1
Cc1ccccc1 [toluene] + CCCOC[n+]1ccn(Cc2ccccc2)c1.F[B-](F)(F)F	3.12 ± 0.21	3.03 ± 0.21	3.04 ± 0.21
CCCCCCCCCCCCCC [tetradecane] + CCCOC[n+]1ccn(C)c1.N#C[N-]C#N	1510 ± 100	1390 ± 96	1260 ± 87
c1ccccc1 [benzene] + CCCOC[n+]1ccn(C)c1.F[B-](F)(F)F	3.51 ± 0.24	3.45 ± 0.23	3.46 ± 0.24
CCCCCC [hexane] + CN(C)c1cc[n+](COCCCOC[n+]2ccc(N(C)C)cc2)cc1.O=S(=O)([N-]S(=O)(=O)C(F)(F)F)C(F)(F)F.O=S(=O)([N-]S(=O)(=O)C(F)(F)F)C(F)(F)F	7.4 ± 0.5	5.82 ± 0.4	4.7 ± 0.32
ClC(Cl)(Cl)Cl [tetrachloromethane] + CCCCCCCCn1cc[n+](COCCCOC[n+]2ccn(CCCCCCCC)c2C)c1C.N#C[N-]C#N.N#C[N-]C#N	1.11 ± 0.07	1.12 ± 0.07	1.12 ± 0.07

SMILES	activity coefficient (323.15 K)	activity coefficient (333.15 K)	activity coefficient (343.15 K)
CCO [ethanol] + CCCCCCCCn1cc[n+](COCCCOC[n+]2ccn(CCCCCCCC)c2C)c1C.O=S(=O)([N-]S(=O)(=O)C(F)(F)F)C(F)(F)F.O=S(=O)([N-]S(=O)(=O)C(F)(F)F)C(F)(F)F	0.64 ± 0.04	0.58 ± 0.04	0.55 ± 0.04
CCCC(C)=O [pentan-2-one] + CCCCCCCCn1cc[n+](COCCCOC[n+]2ccn(CCCCCCCC)c2C)c1C.N#C[N-]C#N.N#C[N-]C#N	0.8 ± 0.05	0.8 ± 0.05	0.81 ± 0.05
ClCCl [dichloromethane] + CN(C)c1cc[n+](COCCCOC[n+]2ccc(N(C)C)cc2)cc1.O=S(=O)([N-]S(=O)(=O)C(F)(F)F)C(F)(F)F.O=S(=O)([N-]S(=O)(=O)C(F)(F)F)C(F)(F)F	0.52 ± 0.04	0.54 ± 0.04	0.56 ± 0.04
CCC(=O)CC [pentan-3-one] + CCCOC[n+]1ccn(C)c1.O=S(=O)([N-]S(=O)(=O)C(F)(F)F)C(F)(F)F	0.68 ± 0.05	0.69 ± 0.05	0.72 ± 0.05
c1ccccc1 [benzene] + N#C[N-]C#N.N#C[N-]C#N.c1ccc(Cn2cc[n+](COCCCOC[n+]3ccn(Cc4ccccc4)c3)c2)cc1	3.09 ± 0.21	2.95 ± 0.2	2.92 ± 0.2
ClC(Cl)Cl [trichloromethane] + CCCOC[n+]1ccn(C)c1.O=S(=O)([N-]S(=O)(=O)C(F)(F)F)C(F)(F)F	1.03 ± 0.06	1.06 ± 0.07	1.06 ± 0.07
CO [methanol] + CCCCCCCCn1cc[n+](COCCC)c1C.N#C[N-]C#N	0.32 ± 0.03	0.29 ± 0.03	0.28 ± 0.03
c1ccsc1 [thiophene] + CCCOC[n+]1ccn(Cc2ccccc2)c1.O=S(=O)([N-]S(=O)(=O)C(F)(F)F)C(F)(F)F	0.7 ± 0.05	0.62 ± 0.04	0.62 ± 0.04
CCOCC [diethyl ether] + CCCOC[n+]1ccn(C)c1.F[B-](F)(F)F	10.4 ± 0.71	10.6 ± 0.72	
CCC(=O)CC [pentan-3-one] + CCCOC[n+]1ccc(N(C)C)cc1.O=S(=O)([N-]S(=O)(=O)C(F)(F)F)C(F)(F)F	0.72 ± 0.05	0.75 ± 0.05	0.76 ± 0.05
Cc1ccc(C)cc1 [1,4-dimethylbenzene] + CCCOC[n+]1ccn(Cc2ccccc2)c1.O=S(=O)([N-]S(=O)(=O)C(F)(F)F)C(F)(F)F	1.56 ± 0.1	1.37 ± 0.09	1.34 ± 0.09
C=CCCCC [hex-1-ene] + CCCOC[n+]1ccn(Cc2ccccc2)c1.O=S(=O)([N-]S(=O)(=O)C(F)(F)F)C(F)(F)F	5.09 ± 0.35	4.32 ± 0.29	4.05 ± 0.28
CC#N [acetonitrile] + CCCOC[n+]1ccn(Cc2ccccc2)c1.F[B-](F)(F)F	0.63 ± 0.04	0.63 ± 0.04	0.63 ± 0.04
CC(C)CO [2-methyl-1-propanol] + CCCOC[n+]1ccn(C)c1.O=S(=O)([N-]S(=O)(=O)C(F)(F)F)C(F)(F)F	2.18 ± 0.15	1.93 ± 0.13	1.76 ± 0.12
CC(C)CO [2-methyl-1-propanol] + CCCOC[n+]1ccn(Cc2ccccc2)c1.F[B-](F)(F)F	2.86 ± 0.19	2.53 ± 0.17	2.34 ± 0.16
C1CCCCC1 [cyclohexane] + CCCOC[n+]1ccn(C)c1.F[B-](F)(F)F	46.7 ± 3.2	40.6 ± 2.8	36.4 ± 2.5
